Laboratory results taken from paper PMC7188713, “Phase 1 study of napabucasin, a cancer stemness inhibitor, in patients with advanced solid tumors” (Cancer Chemotherapy and Pharmacology, 2020).

Experiment: Phase 1 dose-escalation study: safety (DLT, MTD, adverse events)
Assay type: in vivo
Description: This Phase 1, open-label, dose-escalation study (3 + 3 design) was carried out at the National Cancer Center Hospital East in Japan. Patients received napabucasin 240 mg twice daily (BID) (Cohort 1), 480 mg BID (Cohort 2), or 720 mg BID (Cohort 3). Day 1 was defined as the day the first dose of napabucasin was administered. All patients were hospitalized until PK assessments were completed (Day 30), though patients were permitted to go/stay out during this period at the discretion of the investigators. […] Dose escalation would continue if no DLTs were observed, and if one of the first three patients experienced a DLT within the first cycle an additional three patients would be enrolled. Dose escalation would be halted if ≥ 2 of the first three patients (or ≥ 2 of the six patients, if additional patients were enrolled) experienced a DLT. If ≤ 1 of the patients in Cohort 3 (highest dose) experienced an observable DLT, then three additional patients were enrolled and would receive the highest dose level of napabucasin, and DLTs would be evaluated in the additional patients. Study treatment was given in 28-day cycles until disease progression or intolerable toxicity due to AEs.
Safety endpoints included AEs, drug-related AEs, vital signs, body weight, laboratory values, and 12-lead ECG. All details of AEs were recorded, including the severity of the event. The severity of AEs was classified according to CTCAE v4.0-JCOG. Napabucasin dose could be reduced or interrupted due to AEs if considered necessary by the investigators, and later reinstated if the AE recovered to Grade 2 or lower. It could also be permanently discontinued in patients who met the discontinuation criteria, which included AEs that rendered trial continuation difficult, aggravation of underlying disease, and withdrawal of consent. Body weight was measured at baseline and Day 29 of Cycle 2, and every 28 days in subsequent cycles. Vital signs were measured at baseline, Days 1, 2, 8, 15, and 22 of Cycle 1, Days 29, 36, 43, and 50 of Cycle 2, and every 28 days in subsequent cycles. 12-lead ECG was measured at baseline and Day 57 in Cycle 3, and every 28 days in subsequent cycles. Laboratory values were recorded at baseline, Days 8, 15, and 22 in Cycle 1, Days 29, 36, 43, and 50 in Cycle 2, and every 28 days in subsequent cycles.
The safety and antitumor activity (intention-to-treat [ITT]) analysis populations included all patients that received at least one dose of napabucasin. The DLT analysis population included all patients that received at least one dose of napabucasin with at least 80% compliance ([number of capsules actually ingested/number of capsules that should have been ingested per dose […]] × 100) during the DLT evaluation period, and those patients who experienced DLT during the evaluation period regardless of compliance. The PK population included all patients that received at least one dose of napabucasin and had plasma napabucasin concentration data for at least one-time point after the first dose of napabucasin.

[1] = all grades, all cohorts, 14 patients

## CC(=O)c1cc2c(o1)C(=O)c1ccccc1C2=O [napabucasin]
28-day cycles, BID dosing
  MTD (maximum tolerated dose): 1440 mg/day
Cohort 1, 480 mg/day, n = 3
  Any drug-related adverse event, Grade 1: 1 (33.3) Number of patients (%)
  Drug-related abdominal pain lower (Grade 1): 0 (0.0) Number of patients (%)
  Drug-related anorexia, Grade 1: 1 (33.3) Number of patients (%)
  Drug-related anorexia, Grade 2: 0 (0.0) Number of patients (%)
  Drug-related anorexia, Grade 3: 0 (0.0) Number of patients (%)
  Drug-related diarrhea, Grade 1: 1 (33.3) Number of patients (%)
  Drug-related nausea (Grade 1): 0 (0.0) Number of patients (%)
  Drug-related rash (Grade 1): 0 (0.0) Number of patients (%)
  Drug-related urinary tract infection (Grade 1): 0 (0.0) Number of patients (%)
Cohort 2, 960 mg/day, n = 4
  Any drug-related adverse event, Grade 1: 4 (100) Number of patients (%)
  Drug-related abdominal pain lower (Grade 1): 1 (25.0) Number of patients (%)
  Drug-related anorexia, Grade 1: 0 (0.0) Number of patients (%)
  Drug-related anorexia, Grade 2: 0 (0.0) Number of patients (%)
  Drug-related anorexia, Grade 3: 0 (0.0) Number of patients (%)
  Drug-related diarrhea, Grade 1: 3 (75.0) Number of patients (%)
  Drug-related nausea (Grade 1): 0 (0.0) Number of patients (%)
  Drug-related rash (Grade 1): 1 (25.0) Number of patients (%)
  Drug-related urinary tract infection (Grade 1): 1 (25.0) Number of patients (%)
Cohort 3, 1440 mg/day, n = 7
  Any drug-related adverse event, Grade 1: 4 (57.1) Number of patients (%)
  Any drug-related adverse event, Grade 2: 1 (14.3) Number of patients (%)
  Any drug-related adverse event, Grade 3: 1 (14.3) Number of patients (%)
  Drug-related abdominal pain lower (Grade 1): 0 (0.0) Number of patients (%)
  Drug-related anorexia, Grade 1: 0 (0.0) Number of patients (%)
  Drug-related anorexia, Grade 2: 1 (14.3) Number of patients (%)
  Drug-related anorexia, Grade 3: 1 (14.3) Number of patients (%)
  Drug-related diarrhea, Grade 1: 4 (57.1) Number of patients (%)
  Drug-related diarrhea, Grade 3: 1 (14.3) Number of patients (%)
  Drug-related nausea (Grade 1): 4 (57.1) Number of patients (%)
  Drug-related rash (Grade 1): 0 (0.0) Number of patients (%)
  Drug-related urinary tract infection (Grade 1): 0 (0.0) Number of patients (%)
After the first dose
  Initial onset of nausea, most frequently observed: 1 to 14 days
All cohorts, 14 patients
  Drug-related nausea, number of patients: 4 n
  Drug-related vomiting, number of patients: 3 n
[1]
  Drug-related anorexia, number of patients: 3 n
  Drug-related diarrhea, number of patients: 9 n
human, in vivo
  Any drug-related adverse event, Grade 1: 9 (64.3) Number of patients (%)
  Any drug-related adverse event, Grade 2: 1 (7.1) Number of patients (%)
  Any drug-related adverse event, Grade 3: 1 (7.1) Number of patients (%)
  Drug-related abdominal pain lower (Grade 1): 1 (7.1) Number of patients (%)
  Drug-related anorexia, Grade 1: 1 (7.1) Number of patients (%)
  Drug-related anorexia, Grade 2: 1 (7.1) Number of patients (%)
  Drug-related anorexia, Grade 3: 1 (7.1) Number of patients (%)
  Drug-related diarrhea, Grade 1: 8 (57.1) Number of patients (%)
  Drug-related diarrhea, Grade 3: 1 (7.1) Number of patients (%)
  Drug-related nausea (Grade 1): 4 (28.6) Number of patients (%)
  Drug-related rash (Grade 1): 1 (7.1) Number of patients (%)
  Drug-related urinary tract infection (Grade 1): 1 (7.1) Number of patients (%)
  Drug-related vomiting (Grade 1): 3 (21.4) Number of patients (%)
  Initial onset of diarrhea and vomiting, most frequently observed: 1 to 7 days
  Patients who experienced drug-related AEs: 11 patients
  Patients with AEs reported: 14 patients
In vivo
  Dose reductions due to AEs: no dose reductions due to AEs
  Patients with dose interruptions due to AEs: five
N = 14
  Deaths due to AEs: No patients died due to AEs
